Read-outs that look alike come from different tables or passages of the source.
Legend:
human 5-HT3 receptor = human 5-HT3 receptor (Homo sapiens (Human), UniProt P46098); test: Radioligand binding assay (SPA format), affinity for the human 5-HT3 receptor; conditions: for inhibition at 10 µM: read-out: h5-HT3A % inhibition @ 10 μM
Description: The relative affinity of the various compounds for the human 5-HT3 receptor was measured in a radioligand binding assay, using a scintillation proximity assay (SPA) format. Test compounds were dissolved to 10 mM in 100% DMSO, then serially diluted at 10× assay concentrations in 100% DMSO in 96-well polypropylene plates and further diluted to 4× assay concentrations with the assay buffer. Samples were incubated in 50 mM Tris-HCl, pH 7.5, 3 mM MgCl2, 1 mM EDTA and 10% DMSO with 10 nM [9-methyl-^3H]BRL-43694 (Perkin Elmer), 3 μg of human 5-HT3 receptor membranes (Perkin Elmer) and 0.5 mg/mL SPA beads (WGA PVT, Amersham Biosciences) in a final volume of 0.2 mL. Binding reactions were set up in wells of PicoPlates-96 (Perkin Elmer) by adding consecutively 50 μL of each competing compound or buffer, SPA beads, the radioligand and 5-HT3 receptor membranes. After an overnight incubation at room temperature on a Nutator mixer, plates were centrifuged for 15 min at 1,500 rpm, followed by incubation in the dark for 30 min. Radioactivity was counted in the TopCount microplate counter (Perkin Elmer) for 5 min. Total binding control contained compound dilution buffer only; nonspecific binding was determined in the presence of 30 μM MDL-72222. Specific binding was determined by subtracting nonspecific binding from total binding. All experiments were performed in duplicate using ten concentrations of competing ligand, with ondansetron included as a control in every run. IC50 values were determined from specific binding data using XLfit4.1 curve fitting software from IDBS Ltd. The inhibition constant (Ki) was calculated from the Cheng Prusoff equation: (Ki=IC50/(1+(L/KD)), where L=concentration of radioligand in the assay, and KD=affinity of the radioligand for the receptor.

h5-HT3A receptor = h5-HT3A receptor (Homo sapiens (Human), UniProt P46098); test: Agonist activity at recombinant human 5-HT3A receptors, [Ca2+]i in HEK293 cells; format: cell-based; conditions: at 1 μM, normalized to the response of 5-HT (5-HT response = 100% at 3 μM); NR = no response
Description: Human embryonic kidney (HEK293) cells expressing the h5-HT3A receptor subunit were seeded directly into poly-D-lysine coated, black-walled, clear bottomed, 96 well plates with approximately 1×10^5 cells per well. After 48 hrs incubation in DMEM growth media (100 μL), cells were washed twice (each 200 μL) in Hank's balanced salt solution (Invitrogen) before incubation (1 hr) with Fluo-4 acetoxymethyl (AM) ester (100 μL, 2.5 μM; Molecular Probes). Cells were washed twice (each 200 μL) in Hank's balanced salt solution and incubated for a further 30 min in Hank's balanced salt solution (100 μL) prior to assay (25° C.). Alteration in [Ca^2+]i was measured (relative fluorescence units [RFU]) using a Flexstation (excitation 488 nm and emission 515 nm; frequency of recording 3 sec). After recording for at least 80 sec, vehicle (Hank's balanced salt solution) or drug was automatically administered to the well (50 μL). Baseline was calculated from the 5 data points immediately prior to the first drug administration and the maximum response was that achieved over the 240 sec following drug administration. In all experiments the muscarinic receptor agonist carbachol (1 mM) was added 240 sec after the test drug administration.

[1] = [9-methyl-3H]BRL-43694 10 nM, human 5-HT3 receptor membranes, Cheng Prusoff, read-out: h5-HT3A Ki
[2] = 10 μM compound, radioligand binding

h5-HT3A receptor, sequence (P46098 24-478): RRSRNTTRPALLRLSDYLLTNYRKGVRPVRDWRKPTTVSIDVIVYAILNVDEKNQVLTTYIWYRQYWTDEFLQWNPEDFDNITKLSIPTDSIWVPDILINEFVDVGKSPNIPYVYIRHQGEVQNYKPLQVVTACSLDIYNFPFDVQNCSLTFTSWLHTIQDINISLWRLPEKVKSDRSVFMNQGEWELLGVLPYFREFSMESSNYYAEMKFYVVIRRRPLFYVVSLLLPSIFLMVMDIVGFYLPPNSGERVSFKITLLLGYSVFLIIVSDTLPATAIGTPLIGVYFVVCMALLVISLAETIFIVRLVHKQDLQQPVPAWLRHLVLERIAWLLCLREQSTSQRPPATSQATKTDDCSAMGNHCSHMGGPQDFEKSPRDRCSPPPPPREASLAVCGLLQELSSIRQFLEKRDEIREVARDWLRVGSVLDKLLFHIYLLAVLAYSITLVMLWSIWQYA
human 5-HT3 receptor, sequence (P46098 24-478): as above

O=C1c2cc(O)cc3cnn(c23)CCN1[C@@H]1CN2CCC1CC2 [Example 12, (S)-4-hydroxy-7-(quinuclidin-3-yl)-8,9-dihydro-[1,4]diazepino[6,7,1-hi]indazol-6(7H)-one]
Ki (human 5-HT3 receptor; [1]): 0.002 µM

O=C1c2cccc3nc(-c4ccc(F)cc4)n(c23)CCN1[C@@H]1CN2CCC1CC2 [Example 22, 2-(4-fluorophenyl)-6-((S)-quinuclidin-3-yl)-5,6-dihydroimidazo[4,5,1-jk][1,4]benzodiazepin-7(4H)-one]
inhibition at 10 µM (human 5-HT3 receptor; [2]): 69%

O=C1c2cccc3ccn(c23)CCCN1[C@@H]1CN2CCC1CC2 [Example 6, (S)-2-(quinuclidin-3-yl)-2,3,4,5-tetrahydro-1H-[1,5]diazocino[3,2,1-hi]indol-1-one]
Ki (human 5-HT3 receptor; [1]): 0.205 µM

O=C1c2cccc3[nH]c(=O)n(c23)CCN1[C@@H]1CN2CCC1CC2 [Example 25, 6-((S)-quinuclidin-3-yl)-5,6-dihydroimidazo[4,5,1-jk][1,4]benzodiazepine-2,7(1H, 4H)-dione]
Ki (human 5-HT3 receptor; [1]): 0.007 µM
HEK293 h5-HT3A % agonist response (h5-HT3A receptor): 83%

COc1ccc(Cn2cc3c4c(cccc42)C(=O)N(CC24CCN(CC2)CC4)CC3)cc1 [Example 27, 6-(4-methoxybenzyl)-2-(quinuclidin-4-ylmethyl)-2,3,4,6-tetrahydro-1H-azepino[5,4,3-cd]indol-1-one]
Ki (human 5-HT3 receptor): 0.008 µM

CCc1nc2cccc3c2n1CCN([C@H]1CN2CCC1CC2)C3=O [Example 16, 2-ethyl-6-((R)-quinuclidin-3-yl)-5,6-dihydroimidazo[4,5,1-jk][1,4]benzodiazepin-7(4H)-one]
inhibition at 10 µM (human 5-HT3 receptor): 39%

COc1cc2c3c(cnn3CCN([C@@H]3CN4CCC3CC4)C2=O)c1 [Example 10, (S)-4-methoxy-7-(quinuclidin-3-yl)-8,9-dihydro-[1,4]diazepino[6,7,1-hi]indazol-6(7H)-one]
Ki (human 5-HT3 receptor): 0.014 µM

Cc1nc2cccc3c2n1CCN([C@@H]1CN2CCC1CC2)C3=O [Example 15, 2-methyl-6-((S)-quinuclidin-3-yl)-5,6-dihydroimidazo[4,5,1-jk][1,4]benzodiazepin-7(4H)-one]
inhibition at 10 µM (human 5-HT3 receptor): 80%

CC(C)c1nc2cccc3c2n1CCN([C@@H]1CN2CCC1CC2)C3=O [Example 19, 2-isopropyl-6-((S)-quinuclidin-3-yl)-5,6-dihydroimidazo[4,5,1-jk][1,4]benzodiazepin-7(4H)-one]
inhibition at 10 µM (human 5-HT3 receptor; [2]): 74%

O=C1c2cccc3ccn(c23)CCN1[C@H]1CN2CCC1CC2 [Example 1, (R)-2-(quinuclidin-3-yl)-3,4-dihydro-[1,4]diazepino[6,7,1-hi]indol-1(2H)-one]
Ki (human 5-HT3 receptor; [1]): 0.074 µM

Cc1nc2cccc3c2n1CCN([C@H]1CN2CCC1CC2)C3=O [Example 14, 2-methyl-6-((R)-quinuclidin-3-yl)-5,6-dihydroimidazo[4,5,1-jk][1,4]benzodiazepin-7(4H)-one]
inhibition at 10 µM (human 5-HT3 receptor): 40%

O=C1c2cccc3nc(-c4ccccc4)n(c23)CCN1[C@H]1CN2CCC1CC2 [Example 20, 2-phenyl-6-((R)-quinuclidin-3-yl)-5,6-dihydroimidazo[4,5,1-jk][1,4]benzodiazepin-7(4H)-one]
inhibition at 10 µM (human 5-HT3 receptor; [2]): 23%

O=C1c2cccc3[nH]c(=O)n(c23)CCN1[C@H]1CN2CCC1CC2 [Example 24, 6-((R)-quinuclidin-3-yl)-5,6-dihydroimidazo[4,5,1-jk][1,4]benzodiazepine-2,7(1H, 4H)-dione]
inhibition at 10 µM (human 5-HT3 receptor): 75%

O=C1c2cccc3c2N(CCN1[C@@H]1CN2CCC1CC2)S(=O)(=O)N3 [Example 26, 6-((S)-quinuclidin-3-yl)-5,6-dihydro-1H-[1,2,5]thiadiazolo[4,3,2-jk][1,4]benzodiazepin-7(4H)-one 2,2-dioxide]
Ki (human 5-HT3 receptor; [1]): 0.701 µM

O=C1c2cccc3ccn(c23)CCN1[C@@H]1CN2CCC1CC2 [Example 2, (S)-2-(quinuclidin-3-yl)-3,4-dihydro-[1,4]diazepino[6,7,1-hi]indol-1(2H)-one]
Ki (human 5-HT3 receptor; [1]): 0.004 µM
HEK293 h5-HT3A % agonist response (h5-HT3A receptor): 7%

O=C1c2cc(Cl)cc3cnn(c23)CCN1[C@@H]1CN2CCC1CC2 [Example 8, (S)-4-chloro-7-(quinuclidin-3-yl)-8,9-dihydro-[1,4]diazepino[6,7,1-hi]indazol-6(7H)-one]
Ki (human 5-HT3 receptor; [1]): 0.0005 µM

CCc1nc2cccc3c2n1CCN([C@@H]1CN2CCC1CC2)C3=O [Example 17, 2-ethyl-6-((S)-quinuclidin-3-yl)-5,6-dihydroimidazo[4,5,1-jk][1,4]benzodiazepin-7(4H)-one]
Ki (human 5-HT3 receptor; [1]): 0.13 µM

O=C1c2cccc3ccn(c23)CCCN1[C@H]1CN2CCC1CC2 [Example 5, (R)-2-(quinuclidin-3-yl)-2,3,4,5-tetrahydro-1H-[1,5]diazocino[3,2,1-hi]indol-1-one]
Ki (human 5-HT3 receptor; [1]): 0.416 µM

O=C1c2cccc3nc(-c4ccccc4Cl)n(c23)CCN1[C@@H]1CN2CCC1CC2 [Example 23, 2-(2-chlorophenyl)-6-((S)-quinuclidin-3-yl)-5,6-dihydroimidazo[4,5,1-jk][1,4]benzodiazepin-7(4H)-one]
Ki (human 5-HT3 receptor; [1]): 0.206 µM

O=C1c2cc(F)cc3cnn(c23)CCN1[C@@H]1CN2CCC1CC2 [Example 9, (S)-4-fluoro-7-(quinuclidin-3-yl)-8,9-dihydro-[1,4]diazepino[6,7,1-hi]indazol-6(7H)-one]
Ki (human 5-HT3 receptor; [1]): 0.006 µM

O=C1c2cccc3[nH]cc(c23)CCN1CC12CCN(CC1)CC2 [Example 28, 2-(quinuclidin-4-ylmethyl)-2,3,4,6-tetrahydro-1H-azepino[5,4,3-cd]indol-1-one]
Ki (human 5-HT3 receptor; [1]): 0.03 µM

O=C1c2cccc3nc(-c4ccccc4)n(c23)CCN1[C@@H]1CN2CCC1CC2 [Example 21, 2-phenyl-6-((S)-quinuclidin-3-yl)-5,6-dihydroimidazo[4,5,1-jk][1,4]benzodiazepin-7(4H)-one]
Ki (human 5-HT3 receptor; [1]): 0.406 µM

O=C1c2cccc3cnn(c23)CCN1CC12CCN(CC1)CC2 [Example 32, 7-(quinuclidin-4-ylmethyl)-8,9-dihydro-[1,4]diazepino[6,7,1-hi]indazol-6(7H)-one]
Ki (human 5-HT3 receptor; [1]): 0.073 µM

Cc1cc2c3c(cnn3CCN([C@@H]3CN4CCC3CC4)C2=O)c1 [Example 11, (S)-4-methyl-7-(quinuclidin-3-yl)-8,9-dihydro-[1,4]diazepino[6,7,1-hi]indazol-6(7H)-one]
Ki (human 5-HT3 receptor; [1]): 0.0008 µM

Cc1cn2c3c(cccc13)C(=O)N([C@@H]1CN3CCC1CC3)CC2 [Example 3, (S)-7-methyl-2-(quinuclidin-3-yl)-3,4-dihydro-[1,4]diazepino[6,7,1-hi]indol-1(2H)-one]
Ki (human 5-HT3 receptor; [1]): 0.005 µM
HEK293 h5-HT3A % agonist response (h5-HT3A receptor): 13%

CC(C)c1nc2cccc3c2n1CCN([C@H]1CN2CCC1CC2)C3=O [Example 18, 2-isopropyl-6-((R)-quinuclidin-3-yl)-5,6-dihydroimidazo[4,5,1-jk][1,4]benzodiazepin-7(4H)-one]
inhibition at 10 µM (human 5-HT3 receptor; [2]): 51%

O=C1c2cccc3ncn(c23)CCN1[C@@H]1CN2CCC1CC2 [Example 13, 6-((S)-quinuclidin-3-yl)-5,6-dihydroimidazo[4,5,1-jk][1,4]benzodiazepin-7(4H)-one]
Ki (human 5-HT3 receptor; [1]): 0.032 µM

Cc1cn2c3c(cc(Cl)cc13)C(=O)N([C@@H]1CN3CCC1CC3)CC2 [Example 4, (S)-9-chloro-7-methyl-2-(quinuclidin-3-yl)-3,4-dihydro-[1,4]diazepino[6,7,1-hi]indol-1(2H)-one]
Ki (human 5-HT3 receptor; [1]): 0.0002 µM

Reference: US9045501B2, “5-HT3 receptor modulators, methods of making, and use thereof” (Albany Molecular Research, Inc., priority 2009, dated 2015)
